{"source": "patent US12628822B2", "about": "“Plant pathogen defence elicitors” (UNIVERSITÉ LIBRE DE BRUXELLES, priority 2020, dated 2026)", "key": {"Botrytis cinerea [1]": {"test_system": "Botrytis cinerea", "test": "B. cinerea inoculation of Arabidopsis leaves: necrotic lesion area and in planta growth", "assay_type": "in vivo", "experimental": "For “in planta” growth test of Botrytis cinerea and histochemical assays, five-week-old Col-0 plants were germinated in soil and grown in controlled chamber ( 8/16 h light/dark at 22/20° C. day/night) with a relative humidity equal to 70%. Treatments were performed by applying 40-50 μl of fresh-prepared and filtered solution per leaf.\nBotrytis cinerea (strain B05.10, from the INRA/IJPB Institute, Versailles, France) was grown on potato dextrose agar medium at 21° C., with a photoperiod of 12 h light/12 h dark. Leaves were inoculated with two 5-μL droplets of B. cinerea spores (5×10^5 spores ml-1). At the indicated time points, genomic DNA from whole leaves was extracted following the modified protocol of Edwards et al. (A simple and rapid method for the preparation of plant genomic DNA for PCR analysis. Nucl. Acid. Res. 1991, vol. 19, 13491991) and fungal biomass was quantified as described by Gachon and Saindrenan (Real-time PCR monitoring of fungal development in Arabidopsis thaliana infected by Alternaria brassicicola and Botrytis cinerea. Plant Physiol Biochem. 2004, vol. 42, 367-371).\nThree days after fungus inoculation, the areas of the developing necrotic lesions were analysed by ImageJ software and the B. cinerea “in planta” growth was evaluated through qPCR. […]"}, "MPK3/6": {"test_system": "MPK3/6", "test": "Western-blot analysis of MPK3/6 phosphorylation", "assay_type": "in vivo, Arabidopsis thaliana", "conditions": "100 μM, 5 mins after treatment, Col-0 plants", "experimental": "FIG. 10d illustrates early immunohistochemical quantification or Western-blot analysis of the MPK3/6 phosphorylation after the indicated treatments. […] Leaves were collected 5 mins after treatment, immediately frozen in liquid nitrogen, and stored at −80° C. for analysis. […] The separated proteins were transferred on a 0.45-μm Immobilon-PPVDF membrane (Millipore). Blocking was performed in TBST containing 5% non-fat dry milk, and blots were incubated overnight at 4° C. with specific antibodies (anti-AtMPK6 and anti-Phospho-p44/42 MPK (Thr202/Tyr204)), washed in TBST, and incubated with the secondary antibody anti-Rabbit IgG conjugated with horseradish peroxidase (HRP) enzyme diluted to 1/10,000. The chemiluminescent detection of HRP was performed withClarity™Western ECL Substrate and ChemiDoc™MP Imaging System."}, "Botrytis cinerea [2]": {"test_system": "Botrytis cinerea", "test": "Protection of tomato plants against Botrytis cinerea (lesion areas)", "assay_type": "in vivo", "conditions": "100 μM; 4 weeks old tomato plants; compared with 100 μM AA9_COS", "experimental": "All experiments were carried on 4 weeks old tomato plants infected with 10^6 spores per millilitres of Botrytis cinerea.\nProtection of tomatoes plant against pathogen Botrytis cinerea using several combinations of native cellodextrines, and C1-oxidised, C4-oxidised, and optionally C1- and C4-oxidised (double oxidised) cellodextrines was tested (FIG. 14). In particular, the numerals in FIG. 14 represent mixtures with the following molar proportions of the respective cellodextrins components: • native:C1-oxidised:C4-oxidised • (1) 4:5:1; (2) 6.5:3:0.5; (3) 3:6.5:0.5; (4) 4:3:3; (5) 4:1:5; (6) 0.5:9:0.5; • native:C1-oxidised:C4-oxidised:doubly oxidised • (7) 0.5:4:0.5:5; (8) 2.5:2.5:2.5:2.5.\nAll experiments were carried on 4 weeks old tomato plants infected with 10^6 spores of Botrytis cinerea. All mixtures were applied having the same molar mass concentration of 100 μM."}, "callose deposition": {"test_system": "callose deposition", "test": "Callose staining in Arabidopsis leaves", "assay_type": "in vivo, Arabidopsis thaliana", "conditions": "6 and 24 h after treatment; 100 μM AA9_COS, 100 μM cellobiose or 1 μM FLG22; 5-week old plants", "experimental": "Callose deposits quantification was performed essentially as described by Zarattini et al. (The bile acid deoxycholate elicits defences in Arabidopsis and reduces bacterial infection. Mol Plant Pathol. 2017, vol. 18(4), 540-554). […] Leaves were examined by stereofluorescence microscopy with an Azio Zoom V.16 (Carl Zeiss Inc., Oberkochen, Germany) and callose spots were quantified using ImageJ software.\nAmong them, several genes were associated to callose deposition in the cell wall (FIG. 4)."}}, "data": [{"smiles": "OC[C@H]1O[C@@H](O[C@H]2[C@H](O)[C@@H](O)[C@H](O)O[C@@H]2CO)[C@H](O)[C@@H](O)[C@@H]1O", "note": "[Cellobiose, β-D-glucopyranosyl(1→4)D-glucopyranose]", "values": [{"measurement": "reduction of average sizes of necrotic lesions compared with untreated leaves", "setting": "Botrytis cinerea [1]; 100 μM pre-treatment 24 h before inoculation, three days after inoculation", "result": "a little protection"}, {"measurement": "reduction of B. cinerea in planta growth (fungus biomass, qPCR)", "setting": "Botrytis cinerea [1]; 100 μM pre-treatment, 3 days after infection", "result": "slight reduction"}, {"measurement": "Early MPK3/6 phosphorylation", "setting": "MPK3/6", "result": "no phosphorylation was observed"}, {"measurement": "protection of tomato plants (size of lesion areas)", "setting": "Botrytis cinerea [2]", "result": "less protective effect"}, {"measurement": "callose accumulation", "setting": "callose deposition", "result": "no visible callose spots"}]}]}
